Here are results for one molecule from patent EP2204398A1, “CA[…] DERIVATIVE AND USES OF THE SAME” (NanoCarrier Co., Ltd., priority 2008, dated 2009).

Series [1] can be described thus: Test for blood kinetics in rat (CPT concentration in blood plasma by HPLC). As to conditions: tail vein, camptothecin in DMSO, administered in the same manner, n=1. Format: in vivo, male Wister rat. The protocol:
In a sample vial, 50 mg of the complex obtained in Example 1 which was weighed precisely was placed, and 1 mL of purified water was added thereto, followed by suspending the polymer. The resulting suspension was stirred for one day and night, and sonicated using Biodisruptor (Nihonseiki Kaisha Ltd., High Power Unit) with ice cooling for 10 minutes, followed by filtration through a 0.22 µm filter (Millipore, MILLEX (registered trademark) GP PES) and recovery of the resulting filtrate. […]
To 30 µL of the collected rat blood plasma, 100 µL of acetonitrile and 20 µL of 10 mM HCl were sequentially added, and the resulting mixture was stirred. […] The filtrate was filled in an HPLC sample vial, and the concentration of free CPT in the blood plasma was determined.
The HPLC conditions were as followed. Unless otherwise specified, the HPLC analysis of CPT was carried out under the same conditions. • System: Waters Alliance System • Column: Tosoh TSK-gel ODS-80TM (Φ4.6 × 150 mm) (40°C) • Mobile phase: 25 mM ammonium formate buffer (pH 3.0)/acetonitrile=70/30 • Flow rate: 1 mL/min. • Detection: fluorescence (Ex: 370 nm, Em: 420 nm) Injection volume: 20 µL

In series [2] the test system is Human Prostate Cancer PC-3 Cells. In words: Test for pharmacological effect using human prostate cancer PC-3 cells - 1 (tumor volume). As to conditions: CPT DMSO solution 7 mg/kg, tail vein, 3 times at intervals of 4 days, n=7. The series is classed as in vivo, male nude mice. Here is the method:
(§1) PC-3 cells (purchased from ATCC via Summit Pharmaceuticals International Corporation; which provision is also applied hereinafter) were cultured using RPMI1640 + 10% FBS medium under 5% CO2 at 37°C to allow their growth to attain the cell number required for transplantation. The cells were suspended in physiological saline and subcutaneously inoculated to the back of male nude mice [Blab nu/nu, 8 weeks old, Charles River Laboratories Japan] such that the dose of 3 × 10^6 cells/100 µL per mouse was attained. Thereafter, the nude mice were kept for 7 days, and when the tumor volume reached 83.3 t 6.2 mm^3 (average ± SE, wherein SE indicates standard error; which provision is also applied hereinafter), administration of drugs were started. A total of 3 times of administration through the tail vein at intervals of 4 days were scheduled, and changes in the tumor volume and body weight with time were measured for 3 groups (n=7), that is, (1) control (untreated); (2) the CPT DMSO solution 7 mg/kg; and (3) PEG-pAsp-CPT 3 mg/kg (the dose is based on the amount of camptothecin (mg/kg/injection)). The major diameter (a mm) and the minor diameter (b mm) of each tumor were measured using an electronic caliper (Mitutoyo Corporation), and the tumor volume was calculated according to the following equation.
(§2) Tumor volume (mm^3) = a × b^2 /2 [formula] […]

Series [3] in a line: Changes in body weight in PC-3 tumor-bearing animals, test 1. The series is classed as in vivo, male nude mice. As to conditions: CPT DMSO solution 7 mg/kg, tail vein, 3 times at intervals of 4 days, n=7. Here is the method: as §1, §2

As for `CC[C@@]1(O)C(=O)OCc2c1cc1n(c2=O)Cc2cc3ccccc3nc2-1` [CPT solution, camptothecin], in series [1], the blood concentration entry is reported as “decreased rapidly”. Moreover, the “tumor growth inhibition effect in comparison with the control group” value in series [2] is recorded as “hardly observed”. Besides, the “body weight decrease at maximum” value in series [3] was at least 10%.
